Test results as given in EP1206258B1, “COMPOSITIONS CONTAINING ESTERS FOR TREATING PARASITIC INFESTATIONS OF ORGANISMS” (priority 1999, dated 2001).

Columns and labels:
Acarus siro = test: further residual filter paper bioassay on grain/flour mite Acarus siro (Table 2b); conditions: for % mortality: ethanol control 24.00
Experimental: A further study was carried out to investigate the effect of Ethyl cinnamate on the grain/flour mite Acarus siro using a residual filter paper bioassay. Mites from a colony grown at 25°C ± 85% RH were removed using a spatular and placed into a petri dish. 275 µ of the cinnamate was placed onto a filter paper in one well of a 6 well (17 ml) cell culture plate and likewise, 275 µ of DH2O was placed on another piece of 4 cm Whatman filter paper in a second well. Mixed instars (male + female) were added to each well. The actual number of instars was unknown in each case, since the test only sought to establish the presence of activity; measured in terms of cidal effect (knockdown). The duration of the test was 5 ± days. Both treatments were incubated at 25°C ± 85% RH and each well was checked 4 times daily. Small amounts of food mix of yeastea 20B and wheat germ in the ratio 3 : 1 were included on the filter paper in both treatments.
The treatment was later modified : 2, 10 cm Whatman filter papers were cut to ø of 3 cm and placed in the mite culture. After 10 minutes they were removed using forceps. The mites were then swept into each well respective of treatment. The cinnamate provided too glutenous (viscous) to be used undiluted. Therefore, it was dissolved using 10 fold dilutions in ethanol. Therefore 30 µ cinnamate : 270 µ ethanol to the extent of 10-4. The control was ethanol.
The above experiment was repeated.

[1] = tested on: all stages of blow fly and larval life cycle; test: activity against blow fly and larval stages
Penicillium digitatum = test: growth inhibition test on SAB agar, P. digitatum; assay type: cell-based; set-up: key to Growth of P. digitatum: - = No Growth; + = Growth; ++ = Extensive Growth
Experimental: The antifungal activity of ethyl trans-cinnamate against a number of different fungi was investigated by means of in a simple growth inhibition test.
The following quantities of Ethyl trans-Cinnamate were added to Sabourand Dextrose agar (SAB); 50 ml L^-1, 4ml L^-1, 2ml L^-1, 1ml L^-1, 400 µl L^-1, 200 µl L^-1 and 40 µl L^-1. […] These were then autoclaved and poured into standard Petri dishes. […] Duplicate plates of each concentration, plus control plates containing only SAB Agar, where then separately inoculated with, four different species of fungi, these were Aspergillus nidulans, Penicillium digitatum, Rhizopus arrhizus and Fusarium culmorum. Inoculation was carried out using a single stab at the centre of each Petri dish. The plates were then incubated at 30°C for 6 days and daily measurements of mycobial growth where taken every 24 hours.

Rat = conditions: Oral, Russell 1973; cited from earlier work
Guinea Pig = conditions: Oral, VPITAR 33(5)48,74; cited from earlier work

With `CCOC(=O)/C=C/c1ccccc1` [trans-cinnamic acid ethyl ester] the “% mortality” value (Acarus siro; Concentration 10-1 (dilution in ethanol)) was 100.00%, the “% mortality” value (Acarus siro; Concentration 10-2 (dilution in ethanol)) was 100.00% and the “% mortality” value (Acarus siro; Concentration 10-3 (dilution in ethanol)) was 98.40%. For the same molecule, the “% mortality” value (Acarus siro; Concentration 10-4 (dilution in ethanol)) was 86.00%, the “time to 100% mortality” value (Acarus siro; undiluted dose, approximately) was “less than 15 minutes” and the “effectiveness against all stages of blow fly and larval life cycle” value [1] was “ineffective”. For the same molecule, the “Growth of P. digitatum” value (Penicillium digitatum; 1ml L^-1, Day 1) was “-”, the “Growth of P. digitatum” value (Penicillium digitatum; 1ml L^-1, Day 2) was “-” and the “Growth of P. digitatum” value (Penicillium digitatum; 1ml L^-1, Day 3) was “-”. The “Growth of P. digitatum” value (Penicillium digitatum; 1ml L^-1, Day 4) was “+”, the “Growth of P. digitatum” value (Penicillium digitatum; 1ml L^-1, Day 5) was “+” and the “Growth of P. digitatum” value (Penicillium digitatum; 1ml L^-1, Day 6) was “+”. For the same molecule, the “Growth of P. digitatum” value (Penicillium digitatum; 2ml L^-1, Day 1) was “-”, the “Growth of P. digitatum” value (Penicillium digitatum; 2ml L^-1, Day 2) was “-” and the “Growth of P. digitatum” value (Penicillium digitatum; 2ml L^-1, Day 3) was “-”. The “Growth of P. digitatum” value (Penicillium digitatum; 2ml L^-1, Day 4) was “-”, the “Growth of P. digitatum” value (Penicillium digitatum; 2ml L^-1, Day 5) was “-” and the “Growth of P. digitatum” value (Penicillium digitatum; 2ml L^-1, Day 6) was “-”. For the same molecule, the “Growth of P. digitatum” value (Penicillium digitatum; 4ml L^-1, Day 1) was “-”, the “Growth of P. digitatum” value (Penicillium digitatum; 4ml L^-1, Day 2) was “-” and the “Growth of P. digitatum” value (Penicillium digitatum; 4ml L^-1, Day 3) was “-”. The “Growth of P. digitatum” value (Penicillium digitatum; 4ml L^-1, Day 4) was “-”, the “Growth of P. digitatum” value (Penicillium digitatum; 4ml L^-1, Day 5) was “-” and the “Growth of P. digitatum” value (Penicillium digitatum; 4ml L^-1, Day 6) was “-”. For the same molecule, the “Growth of P. digitatum” value (Penicillium digitatum; 40µl L^-1, Day 1) was “-”, the “Growth of P. digitatum” value (Penicillium digitatum; 40µl L^-1, Day 2) was “++” and the “Growth of P. digitatum” value (Penicillium digitatum; 40µl L^-1, Day 3) was “++”. For the same molecule, the “Growth of P. digitatum” value (Penicillium digitatum; 40µl L^-1, Day 4) was “++”, the “Growth of P. digitatum” value (Penicillium digitatum; 40µl L^-1, Day 5) was “++” and the “Growth of P. digitatum” value (Penicillium digitatum; 40µl L^-1, Day 6) was “++”. For the same molecule, the “duration of complete inhibition of growth” value (Penicillium digitatum; 50ml L-^1 and higher doses, further experiments, data not shown) was “at least 8 days”, the inhibition of growth (Penicillium digitatum; 50ml L-^1 level) was “complete inhibition of growth” and the “Growth of P. digitatum” value (Penicillium digitatum; 50 ml L^-1, Day 1) was “-”. The “Growth of P. digitatum” value (Penicillium digitatum; 50 ml L^-1, Day 2) was “-”, the “Growth of P. digitatum” value (Penicillium digitatum; 50 ml L^-1, Day 3) was “-” and the “Growth of P. digitatum” value (Penicillium digitatum; 50 ml L^-1, Day 4) was “-”. The “Growth of P. digitatum” value (Penicillium digitatum; 50 ml L^-1, Day 5) was “-”, the “Growth of P. digitatum” value (Penicillium digitatum; 50 ml L^-1, Day 6) was “-” and the “Growth of P. digitatum” value (Penicillium digitatum; 200µl L^-1, Day 1) was “-”. For the same molecule, the “Growth of P. digitatum” value (Penicillium digitatum; 200µl L^-1, Day 2) was “++”, the “Growth of P. digitatum” value (Penicillium digitatum; 200µl L^-1, Day 3) was “++” and the “Growth of P. digitatum” value (Penicillium digitatum; 200µl L^-1, Day 4) was “++”. The “Growth of P. digitatum” value (Penicillium digitatum; 200µl L^-1, Day 5) was “++”, the “Growth of P. digitatum” value (Penicillium digitatum; 200µl L^-1, Day 6) was “++” and the “Growth of P. digitatum” value (Penicillium digitatum; 400µl L^-1, Day 1) was “-”. The “Growth of P. digitatum” value (Penicillium digitatum; 400µl L^-1, Day 2) was “+”, the “Growth of P. digitatum” value (Penicillium digitatum; 400µl L^-1, Day 3) was “++” and the “Growth of P. digitatum” value (Penicillium digitatum; 400µl L^-1, Day 4) was “++”. The “Growth of P. digitatum” value (Penicillium digitatum; 400µl L^-1, Day 5) was “++”, the “Growth of P. digitatum” value (Penicillium digitatum; 400µl L^-1, Day 6) was “++” and the LDSO (Rat) was 7800 mg/kg. The LDSO (Guinea Pig) was 4000 mg/kg.
